Reference: patent US4311702A, “Imidazo[1,2-a]pyridines having anti-ulcer activity” (Poli Industria Chimica S.p.A., priority 1979, dated 1982)
Like-named read-outs stand apart in the source and are kept apart here.

Assays:
[1] = system: acetylsalicylic acid and pylorus ligation gastric ulcers; assay: Acetylsalicylic acid and pylorus ligation gastric ulcers in the rat; type: in vivo, rat (Wistar male); settings: read-out: Acetylsalicylic acid and pylorus ligation gastric ulcers ED50
Experimental: Wistar male rats, weighing 160-200 g, fasting from the previous evening are administered intraduodenum with the compound under study immediately after pylorus ligation under light ethereal anesthesia. Two hours after treatment rats receive orally 50 mg/kg of acetylsalicylic acid, dissolved in 5% gum arabic solution. An hour later rats are sacrificed under ether anesthesia and stomachs examined for presence of ulcers.

[2] = system: gastric secretion (hydrochloric acid); assay: Activity on gastric secretion in Shay rats (total acidity); type: in vivo, rat (Wistar male); settings: Rattus norvegicus, read-out: Shay rats total acidity ED50
Experimental: Wistar male rats, weighing 160-200 g, starved for 24 hours are treated orally with the compound under study after pylorus ligation under light ethereal anesthesia. 4 hours later rats are anesthetized with ether and after oesophagus ligation, the stomachs are removed and the contents collected. After centrifugation of the gastric juice, the quantity of hydrochloric acid is determined by titration with 0.01 N Sodium hydroxide, using phenolphthalein as indicator.

[3] = system: indomethacin gastric ulcers; assay: Indomethacin gastric ulcers in the rat; type: in vivo, rat (Wistar male); settings: po, read-out: Indomethacin gastric ulcers ED50
Experimental: indomethacin gastric ulcers, induced in the rat following the under mentioned method originally described by Y. H. Lee, K. W. Mollison, W. C. Cheng in Arch. Int. Pharmacodyn.
Wistar male rats, weighing 160-200 g, starved for 24 hours, are administered endoperitoneally with 30 mg/kg of indomethacin in 0.6% aqueous suspension of 1% gum arabic solution and immediately after they are treated orally with the compound under study. 5 hours later animals are sacrificed under ethereal anesthesia, the stomachs are removed, open along the great curvature and examined for the presence of ulcers. The ulcer index is expressed in terms of square root of the number of gastric ulcers.

[4] = system: cold and restraint gastric ulcers; assay: Cold and restraint gastric ulcers in the rat; type: in vivo, rat (Wistar female); settings: po, read-out: Cold and restraint gastric ulcers ED50
Experimental: cold and restraint gastric ulcers induced in the rat following the under mentioned method originally described by E. C. Senay and R. J. Levine in Proc. Soc.
Wistar female rats fasting from the previous evening are introduced in plastic tubes having such a diameter to exert a light constriction and immediately after they are put in a thermoregulated ambient at about 4° C. Two hours later the rats are sacrificed under ethereal anesthesia and their stomachs are examined to ascertain the presence of ulcers.
The ulcer index of each stomach is determined, multiplying the number of gastric lesions of any kind by a corresponding arbitrary value (petechiae=0.5; punctiform ulcer=1; linear ulcer<2 mm=2; linear ulcer>2 mm=3) and adding the partial scores. Rats are treated with the compound under study half an hour before cold exposure.

[5] = intraduodenum immediately after pylorus ligation, dose reducing the number of ulcers by 50% compared with controls
[6] = i.d. (Table 2 head), 4 hours after pylorus ligation, dose reducing secretion of hydrochloric acid by 50% compared with controls
[7] = os, 30 mg/kg indomethacin endoperitoneally, dose reducing the ulcer index by 50% compared with controls
[8] = os, half an hour before cold exposure, dose reducing the ulcer index by 50% compared with controls

Structure (SMILES) | ED50 [1, 5] [mg/kg] | ED50 [2, 6] [mg/kg] | ED50 [3, 7] [mg/kg] | ED50 [4, 8] [mg/kg] | ED50 [1] [mg/kg] | ED50 ([2]; 4 h) [mg/kg] | ED50 [3] [mg/kg] | ED50 [4] [mg/kg]
CNC(=NC#N)NCCSCc1cnc2ccccn12 [Ia] | 7.3 | 1.8 | 3.4 | 2.8 |  |  |  | 
CNC(=NC#N)NCCSCc1c(C)nc2ccccn12 [Ib] | 2.1 | 1.1 | 0.7 | 1.5 |  |  |  | 
CNC(=NC#N)NCCSC(C)c1cnc2ccccn12 (centres unmarked) [Ic] | 5.7 | 2.8 | 3.3 | 1.9 |  |  |  | 
CNC(=NC#N)NCCSC(C)c1c(C)nc2ccccn12 (centres unmarked) [Id] | 0.9 | 0.6 | 0.9 | 0.7 |  |  |  | 
CN/C(=N/CCSCc1nc[nH]c1C)NC#N [[…], Cimetidine, reference compound] |  |  |  |  | 3.8 | 0.6 | 2.4 | 6.3
